What was measured:
Assay type in all cases: in vivo
Chenopodium album [1] = test: Postemergence herbicidal activity (Example 67); settings: pos, 800 g/ha; for herbicide rating, CHEAL: rated after 10-21 days
Procedure: (§1) Herbicidal evaluation of compounds of the invention is conducted on the following plant species:
(§2) The soil is a prepared horticultural substrate containing 30% peat, 20% volcanic clay, 30% bark residues and 20% polyamide/styromull in a 1:3 mixture with loamy sand. Test solutions are prepared by dissolving the test compound in acetone containing 0.5% of an alkylphenol/ethylene oxide condensate under the trademark, TRITON® X-155, and diluting with water as needed. The test solutions are applied as a spray to the 3-6 week old seedling plants at dose rates corresponding to 800g/ha in a volume equivalent to 400 L/ha. A pneumatic spraying device employing a Teejet nozzle SS 8002E operating at 3 bar is used for a predetermined time. After spraying, the treated plants are placed on greenhouse benches and cared for in a manner commensurate with conventional greenhouse practice. After 10-21 days, the treated plants are evaluated and rated according to the rating system provided below.

Zea mays [2] = test: Postemergence herbicidal activity (Example 67); settings: pos, 800 g/ha; for herbicide rating, ZEAMX: rated after 10-21 days
Procedure: as §1, §2

Setaria viridis [3] = test: Postemergence herbicidal activity (Example 67); settings: pos, 800 g/ha; for herbicide rating, SETVI: rated after 10-21 days
Procedure: as §1, §2

Triticum aestivum [4] = test: Postemergence herbicidal activity (Example 67); settings: pos, 800 g/ha; for herbicide rating, TRZAW: rated after 10-21 days
Procedure: as §1, §2

Hordeum vulgare [5] = test: Postemergence herbicidal activity (Example 67); settings: pos, 800 g/ha; for herbicide rating, HORVW: rated after 10-21 days
Procedure: as §1, §2

Amaranthus retroflexus [6] = test: Postemergence herbicidal activity (Example 67); settings: pos, 800 g/ha; for herbicide rating, AMARE: rated after 10-21 days
Procedure: as §1, §2

Abutilon theophrasti [7] = test: Postemergence herbicidal activity (Example 67); settings: pos, 800 g/ha; for herbicide rating, ABUTH: rated after 10-21 days
Procedure: as §1, §2

Alopecurus myosuroides [8] = test: Postemergence herbicidal activity (Example 67); settings: pos, 800 g/ha; for herbicide rating, ALOMY: rated after 10-21 days
Procedure: as §1, §2

Ipomoea hederacea [9] = test: Postemergence herbicidal activity (Example 67); settings: pos, 800 g/ha; for herbicide rating, IPOHE: rated after 10-21 days
Procedure: as §1, §2

Helianthus annuus [10] = test: Postemergence herbicidal activity (Example 67); settings: pos, 800 g/ha; for herbicide rating, HELAN: rated after 10-21 days
Procedure: as §1, §2

Galium aparine [11] = test: Postemergence herbicidal activity (Example 67); settings: pos, 800 g/ha; for herbicide rating, GALAP: rated after 10-21 days
Procedure: as §1, §2

Veronica persica [12] = test: Postemergence herbicidal activity (Example 67); settings: pos, 800 g/ha; for herbicide rating, VERPE: rated after 10-21 days
Procedure: as §1, §2

Chenopodium album [13] = test: Preemergence herbicidal activity (Example 67); settings: pre, 800 g/ha; for herbicide rating, CHEAL: rated about 1-3 weeks after treatment
Procedure: as §1, §2
(§3) The soil surface is then sprayed with test solutions as described in the postemergence evaluation hereinabove. After spraying, the treated cups are placed on greenhouse benches and cared for in the manner commensurate with conventional greenhouse practice. About 1-3 weeks after treatment the cups are evaluated and rated according to the rating system provided hereinabove.

Zea mays [14] = test: Preemergence herbicidal activity (Example 67); settings: pre, 800 g/ha; for herbicide rating, ZEAMX: rated about 1-3 weeks after treatment
Procedure: as §1, §2, §3

Amaranthus retroflexus [15] = test: Preemergence herbicidal activity (Example 67); settings: pre, 800 g/ha; for herbicide rating, AMARE: rated about 1-3 weeks after treatment
Procedure: as §1, §2, §3

Abutilon theophrasti [16] = test: Preemergence herbicidal activity (Example 67); settings: pre, 800 g/ha; for herbicide rating, ABUTH: rated about 1-3 weeks after treatment
Procedure: as §1, §2, §3

Ipomoea hederacea [17] = test: Preemergence herbicidal activity (Example 67); settings: pre, 800 g/ha; for herbicide rating, IPOHE: rated about 1-3 weeks after treatment
Procedure: as §1, §2, §3

Helianthus annuus [18] = test: Preemergence herbicidal activity (Example 67); settings: pre, 800 g/ha; for herbicide rating, HELAN: rated about 1-3 weeks after treatment
Procedure: as §1, §2, §3

Galium aparine [19] = test: Preemergence herbicidal activity (Example 67); settings: pre, 800 g/ha; for herbicide rating, GALAP: rated about 1-3 weeks after treatment
Procedure: as §1, §2, §3

Veronica persica [20] = test: Preemergence herbicidal activity (Example 67); settings: pre, 800 g/ha; for herbicide rating, VERPE: rated about 1-3 weeks after treatment
Procedure: as §1, §2, §3

Alopecurus myosuroides [21] = test: Preemergence herbicidal activity (Example 67); design: herbicide rating, ALOMY: scale not given here; settings: pre, 800 g/ha; for herbicide rating, ALOMY: rated about 1-3 weeks after treatment
Procedure: as §1, §2, §3

Triticum aestivum [22] = test: Preemergence herbicidal activity (Example 67); design: herbicide rating, TRZAW: scale not given here; settings: pre, 800 g/ha; for herbicide rating, TRZAW: rated about 1-3 weeks after treatment
Procedure: as §1, §2, §3

Setaria viridis [23] = test: Preemergence herbicidal activity (Example 67); design: herbicide rating, SETVI: scale not given here; settings: pre, 800 g/ha; for herbicide rating, SETVI: rated about 1-3 weeks after treatment
Procedure: as §1, §2, §3

Hordeum vulgare [24] = test: Preemergence herbicidal activity (Example 67); design: herbicide rating, HORVW: scale not given here; settings: pre, 800 g/ha; for herbicide rating, HORVW: rated about 1-3 weeks after treatment
Procedure: as §1, §2, §3

CC(NC(=O)c1nsc(-c2ccccc2F)n1)c1cccs1 (racemic) [Example 57, (R/S)-5-(2-Fluorophenyl)-[1,2,4]thiadiazole-3-carboxylic acid, [1-(2-thienyl)ethyl]amide]
CHE AL rating (Chenopodium album [1]): 4 (30-44%) | ZEA MX rating (Zea mays [2]): 5 (45-64%) | SET VI rating (Setaria viridis [3]): 9 (100% effect) | TRZ AW rating (Triticum aestivum [4]): 3 (16-29%) | HOR VW rating (Hordeum vulgare [5]): 4 (30-44%) | AMA RE rating (Amaranthus retroflexus [6]): 7 (80-90%) | ABU TH rating (Abutilon theophrasti [7]): 9 (100% effect) | ALO MY rating (Alopecurus myosuroides [8]): 4 (30-44%) | IPO HE rating (Ipomoea hederacea [9]): 7 (80-90%) | HEL AN rating (Helianthus annuus [10]): 8 (91-99%) | GAL AP rating (Galium aparine [11]): 7 (80-90%) | VER PE rating (Veronica persica [12]): 6 (65-79%) | CHE AL rating (Chenopodium album [13]): 1 (1-5%) | ZEA MX rating (Zea mays [14]): 0 | AMA RE rating (Amaranthus retroflexus [15]): 4 (30-44%) | ABU TH rating (Abutilon theophrasti [16]): 0 | IPO HE rating (Ipomoea hederacea [17]): 0 | HEL AN rating (Helianthus annuus [18]): 0 | GAL AP rating (Galium aparine [19]): 0 | VER PE rating (Veronica persica [20]): 0 | ALO MY rating (Alopecurus myosuroides [21]): 3 (16-29%) | TRZ AW rating (Triticum aestivum [22]): 2 (6-15%) | SET VI rating (Setaria viridis [23]): 2 (6-15%) | HOR VW rating (Hordeum vulgare [24]): 0

COc1ccc(-c2nsc(C(=O)N[C@@H](C)c3ccccc3)n2)cc1 [Example 2, (S)-3-(4-Methoxyphenyl)-[1,2,4]thiadiazole-5-carboxylic acid (1-phenylethyl)amide]
herbicide rating, CHEAL (Chenopodium album [1]): 3 (16-29%) | herbicide rating, ZEAMX (Zea mays [2]): 1 (1-5%) | herbicide rating, SETVI (Setaria viridis [3]): 5 (45-64%) | herbicide rating, TRZAW (Triticum aestivum [4]): 2 (6-15%) | herbicide rating, HORVW (Hordeum vulgare [5]): 2 (6-15%) | herbicide rating, AMARE (Amaranthus retroflexus [6]): 0 | herbicide rating, ABUTH (Abutilon theophrasti [7]): 1 (1-5%) | herbicide rating, ALOMY (Alopecurus myosuroides [8]): 2 (6-15%) | herbicide rating, IPOHE (Ipomoea hederacea [9]): 2 (6-15%) | herbicide rating, HELAN (Helianthus annuus [10]): 1 (1-5%) | herbicide rating, GALAP (Galium aparine [11]): 0 | herbicide rating, VERPE (Veronica persica [12]): 0 | herbicide rating, CHEAL (Chenopodium album [13]): 0 | herbicide rating, ZEAMX (Zea mays [14]): 0 | herbicide rating, AMARE (Amaranthus retroflexus [15]): 0 | herbicide rating, ABUTH (Abutilon theophrasti [16]): 0 | herbicide rating, IPOHE (Ipomoea hederacea [17]): 5 (45-64%) | herbicide rating, HELAN (Helianthus annuus [18]): 0 | herbicide rating, GALAP (Galium aparine [19]): 0 | herbicide rating, VERPE (Veronica persica [20]): 0 | herbicide rating, ALOMY (Alopecurus myosuroides [21]): 0 | herbicide rating, TRZAW (Triticum aestivum [22]): 0 | herbicide rating, SETVI (Setaria viridis [23]): 0 | herbicide rating, HORVW (Hordeum vulgare [24]): 0

C[C@H](NC(=O)c1nc(-c2ccc(Cl)cc2)ns1)c1ccccc1 [Example 27, (S)-3-(4-Chlorophenyl)-[1,2,4]thiadiazole-5-carboxylic acid, 1-(phenylethyl) amide]
herbicide rating, CHEAL (Chenopodium album [1]): 4 (30-44%) | herbicide rating, ZEAMX (Zea mays [2]): 5 (45-64%) | herbicide rating, SETVI (Setaria viridis [3]): 8 (91-99%) | herbicide rating, TRZAW (Triticum aestivum [4]): 2 (6-15%) | herbicide rating, HORVW (Hordeum vulgare [5]): 2 (6-15%) | herbicide rating, AMARE (Amaranthus retroflexus [6]): 5 (45-64%) | herbicide rating, ABUTH (Abutilon theophrasti [7]): 6 (65-79%) | herbicide rating, ALOMY (Alopecurus myosuroides [8]): 4 (30-44%) | herbicide rating, IPOHE (Ipomoea hederacea [9]): 7 (80-90%) | herbicide rating, HELAN (Helianthus annuus [10]): 8 (91-99%) | herbicide rating, GALAP (Galium aparine [11]): 5 (45-64%) | herbicide rating, VERPE (Veronica persica [12]): 7 (80-90%) | herbicide rating, CHEAL (Chenopodium album [13]): 2 (6-15%) | herbicide rating, ZEAMX (Zea mays [14]): 0 | herbicide rating, AMARE (Amaranthus retroflexus [15]): 0 | herbicide rating, ABUTH (Abutilon theophrasti [16]): 0 | herbicide rating, IPOHE (Ipomoea hederacea [17]): 1 (1-5%) | herbicide rating, HELAN (Helianthus annuus [18]): 3 (16-29%) | herbicide rating, GALAP (Galium aparine [19]): 0 | herbicide rating, VERPE (Veronica persica [20]): 7 (80-90%) | herbicide rating, ALOMY (Alopecurus myosuroides [21]): 0 | herbicide rating, TRZAW (Triticum aestivum [22]): 0 | herbicide rating, SETVI (Setaria viridis [23]): 0 | herbicide rating, HORVW (Hordeum vulgare [24]): 0

O=C(NCc1cccs1)c1nc(C=Cc2ccccc2)ns1 [Example 28]
herbicide rating, CHEAL (Chenopodium album [1]): 2 (6-15%) | herbicide rating, ZEAMX (Zea mays [2]): 0 | herbicide rating, SETVI (Setaria viridis [3]): 3 (16-29%) | herbicide rating, TRZAW (Triticum aestivum [4]): 0 | herbicide rating, HORVW (Hordeum vulgare [5]): 0 | herbicide rating, AMARE (Amaranthus retroflexus [6]): 0 | herbicide rating, ABUTH (Abutilon theophrasti [7]): 1 (1-5%) | herbicide rating, ALOMY (Alopecurus myosuroides [8]): 1 (1-5%) | herbicide rating, IPOHE (Ipomoea hederacea [9]): 0 | herbicide rating, HELAN (Helianthus annuus [10]): 0 | herbicide rating, GALAP (Galium aparine [11]): 0 | herbicide rating, VERPE (Veronica persica [12]): 2 (6-15%) | herbicide rating, CHEAL (Chenopodium album [13]): 0 | herbicide rating, ZEAMX (Zea mays [14]): 0 | herbicide rating, AMARE (Amaranthus retroflexus [15]): 0 | herbicide rating, ABUTH (Abutilon theophrasti [16]): 0 | herbicide rating, IPOHE (Ipomoea hederacea [17]): 0 | herbicide rating, HELAN (Helianthus annuus [18]): 0 | herbicide rating, GALAP (Galium aparine [19]): 0 | herbicide rating, VERPE (Veronica persica [20]): 0 | herbicide rating, ALOMY (Alopecurus myosuroides [21]): 0 | herbicide rating, TRZAW (Triticum aestivum [22]): 0 | herbicide rating, SETVI (Setaria viridis [23]): 0 | herbicide rating, HORVW (Hordeum vulgare [24]): 0

Reference: patent EP0726261A1, “Herbidical 1,2,4 thiadiazoles” (American Cyanamid Company, priority 1995, dated 1996)
